# Data: patent US11352339B2 (MISSION THERAPEUTICS LIMITED, priority 2016, dated 2022)
# Target: USP30 (Homo sapiens (Human), UniProt Q70CQ3)
# Assay: USP30 Biochemical IC50 Assay
# Conditions: fluorescence polarisation, TAMRA labelled peptide linked to ubiquitin; 30 min pre-incubation, read after 2 h; read-out: IC50 range
# Procedure, shortened: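 Fluorescence polarisation cleavage assay, duplicate wells: substrate is a TAMRA peptide joined to ubiquitin by an iso-peptide bond (50 nM), added after 30 min room-temperature compound–enzyme incubation. Readings at 540/590 nm immediately and at 2 h.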
# USP30, sequence (Q70CQ3 57-517): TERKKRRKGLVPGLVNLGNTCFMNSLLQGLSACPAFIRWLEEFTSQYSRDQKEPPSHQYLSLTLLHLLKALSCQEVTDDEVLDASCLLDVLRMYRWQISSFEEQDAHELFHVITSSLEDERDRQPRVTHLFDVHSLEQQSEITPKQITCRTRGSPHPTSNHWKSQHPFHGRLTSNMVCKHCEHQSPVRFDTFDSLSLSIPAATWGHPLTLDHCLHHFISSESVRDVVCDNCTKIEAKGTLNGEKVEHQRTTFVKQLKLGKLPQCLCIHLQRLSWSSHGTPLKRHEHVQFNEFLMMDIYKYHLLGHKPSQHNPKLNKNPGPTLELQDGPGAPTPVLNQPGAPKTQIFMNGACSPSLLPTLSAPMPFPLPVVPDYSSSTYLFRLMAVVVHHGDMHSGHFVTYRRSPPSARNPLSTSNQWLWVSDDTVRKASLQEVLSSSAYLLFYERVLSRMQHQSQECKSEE
row,SMILES,IC50 [nM]
1,"CNC(=O)c1cc(-c2ccccc2)cc2oc([C@@H]3CCCN3C#N)nc12 [Example 122, (S)-2-(1-Cyanopyrrolidin-2-yl)-N-methyl-6-phenylbenzo[d]oxazole-4-carboxamide]",10000 to 100000
2,"Cc1noc(C)c1-c1ccn2c(C3CCN(C#N)C3)cnc2c1 (stereo not shown) [Example 125, 3-(7-(3,5-Dimethylisoxazol-4-yl)imidazo[1,2-a]pyridin-3-yl)pyrrolidine-1-carbonitrile]",1000 to 10000
3,"N#Cc1cccc(-c2ccc3oc([C@@H]4CCCN4C#N)nc3c2)c1 [Example 126, (S)-2-(5-(3-Cyanophenyl)benzo[d]oxazol-2-yl)pyrrolidine-1-carbonitrile]",100 to 1000
4,"CCc1cccc(-c2cc(C(=O)NC)c3nc([C@@H]4CCCN4C#N)oc3c2)c1 [Example 131, (S)-2-(1-Cyanopyrrolidin-2-yl)-6-(3-ethylphenyl)-N-methylbenzo[d]oxazole-4-carboxamide]",1000 to 10000
5,"N#Cc1cccc(-c2ccc3nc([C@@H]4CCCN4C#N)oc3c2)n1 [Example 132, (S)-6-(2-(1-Cyanopyrrolidin-2-yl)benzo[d]oxazol-6-yl)picolinonitrile]",1000 to 10000
6,"N#CN1CCC[C@H]1c1nc2cc(-c3cccc(OC(F)(F)F)c3)ccc2o1 [Example 133, (S)-2-(5-(3-(Trifluoromethoxy)phenyl)-benzo[d]oxazol-2-yl)pyrrolidine-1-carbonitrile]",100 to 1000
7,"Cc1n[nH]c2cc(-c3ccc4oc([C@@H]5CCCN5C#N)nc4c3)ccc12 [Example 134, (S)-2-(5-(3-Methyl-1H-indazol-6-yl)-benzo[d]oxazol-2-yl)pyrrolidine-1-carbonitrile]",1000 to 10000
8,"N#Cc1cccc(-c2ccc3oc([C@@H]4CCCN4C#N)nc3c2)c1F [Example 137, (S)-2-(5-(3-Cyano-2-fluorophenyl)-benzo[d]oxazol-2-yl)pyrrolidine-1-carbonitrile]",1000 to 10000
9,"N#Cc1cc(F)cc(-c2ccc3oc([C@@H]4CCCN4C#N)nc3c2)c1 [Example 138, (S)-2-(5-(3-Cyano-5-fluorophenyl)-benzo[d]oxazol-2-yl)pyrrolidine-1-carbonitrile]",100 to 1000
10,"N#CN1CCC[C@H]1c1nc(-c2cccc(-c3ccccc3)c2)no1 [Example 141, (S)-2-(3-([1,1′-Biphenyl]-3-yl)-1,2,4-oxadiazol-5-yl)pyrrolidine-1-carbonitrile]",100 to 1000
11,"Cn1nccc1-c1cccc(-c2nc(C3CCCN3C#N)no2)c1 (stereo not shown) [Example 143, 2-(5-(3-(1-Methyl-1H-pyrazol-5-yl)phenyl)-1,2,4-oxadiazol-3-yl)pyrrolidine-1-carbonitrile]",1000 to 10000
12,"COc1cc(-c2cccc(-c3nc(C4CCCN4C#N)no3)c2)ccn1 (stereo not shown) [Example 144, 2-(5-(3-(2-Methoxypyridin-4-yl)phenyl)-1,2,4-oxadiazol-3-yl)pyrrolidine-1-carbonitrile]",1000 to 10000
13,"N#CN1CCCC1c1noc(-c2cccc(-c3ccc(C(N)=O)cc3)c2)n1 (stereo not shown) [Example 149, 3′-(3-(1-Cyanopyrrolidin-2-yl)-1,2,4-oxadiazol-5-yl)-[1,1′-biphenyl]-4-carboxamide]",1000 to 10000
14,"N#CN1CCCC1c1noc(-c2cccc(-c3cccnc3)c2)n1 (stereo not shown) [Example 152, 2-(5-(3-(Pyridin-3-yl)phenyl)-1,2,4-oxadiazol-3-yl)pyrrolidine-1-carbonitrile]",100 to 1000
15,"CS(=O)(=O)c1ccc(-c2cccc(-c3nc(C4CCCN4C#N)no3)c2)cc1 (stereo not shown) [Example 153, 2-(5-(4′-(Methylsulfonyl)-[1,1′-biphenyl]-3-yl)-1,2,4-oxadiazol-3-yl)pyrrolidine-1-carbonitrile]",100 to 1000
16,"N#Cc1ccccc1-c1cccc(-c2nc(C3CCCN3C#N)no2)c1 (stereo not shown) [Example 155, 2-(5-(2′-Cyano-[1,1′-biphenyl]-3-yl)-1,2,4-oxadiazol-3-yl)pyrrolidine-1-carbonitrile]",100 to 1000
17,"N#CN1CCCC1c1noc(-c2cccc(-c3ccc([N+](=O)[O-])cc3)c2)n1 (stereo not shown) [Example 157, 2-(5-(4′-Nitro-[1,1′-biphenyl]-3-yl)-1,2,4-oxadiazol-3-yl)pyrrolidine-1-carbonitrile]",< 100
18,"N#CN1CCCC1c1noc(-c2cccc(-c3cncnc3)c2)n1 (stereo not shown) [Example 159, 2-(5-(3-(Pyrimidin-5-yl)phenyl)-1,2,4-oxadiazol-3-yl)pyrrolidine-1-carbonitrile]",1000 to 10000
19,"COc1ncccc1-c1cccc(-c2nc(C3CCCN3C#N)no2)c1 (stereo not shown) [Example 162, 2-(5-(3-(2-Methoxypyridin-3-yl)phenyl)-1,2,4-oxadiazol-3-yl)pyrrolidine-1-carbonitrile]",100 to 1000
20,"N#Cc1cc(F)cc(-c2cccc(-c3nc(C4CCCN4C#N)no3)c2)c1 (stereo not shown) [Example 163, 2-(5-(3′-Cyano-5′-fluoro-[1,1′-biphenyl]-3-yl)-1,2,4-oxadiazol-3-yl)pyrrolidine-1-carbonitrile]",< 100
21,N#CN1CCCC1c1noc(-c2ccnc(-c3ccccc3)c2)n1 (stereo not shown) [Example 167],100 to 1000

# Other lines, results leading:
row,IC50 [nM],SMILES
1,100 to 1000,"N#CN1CCC(c2cccc(-c3ccccc3)c2N)C1 (stereo not shown) [Example 123, 3-(2-Amino-[1,1′-biphenyl]-3-yl)pyrrolidine-1-carbonitrile]"
2,100 to 1000,"N#CN1CCC(c2cnc3cc(-c4ccccc4)ccn23)C1 (stereo not shown) [Example 124, 3-(7-Phenylimidazo[1,2-a]pyridin-3-yl)pyrrolidine-1-carbonitrile]"
3,1000 to 10000,"N#Cc1cccc(-c2ccc3oc([C@@H]4CCCN4C#N)nc3c2)n1 [Example 127, (S)-6-(2-(1-Cyanopyrrolidin-2-yl)benzo[d]oxazol-5-yl)picolinonitrile]"
4,100 to 1000,"N#Cc1cccc(-c2ccc3nc([C@@H]4CCCN4C#N)oc3c2)c1 [Example 128, (S)-2-(6-(3-Cyanophenyl)benzo[d]oxazol-2-yl)pyrrolidine-1-carbonitrile]"
5,100 to 1000,"CCc1cccc(-c2ccc3oc([C@@H]4CCCN4C#N)nc3c2)c1 [Example 129, (S)-2-(5-(3-Ethylphenyl)benzo[d]oxazol-2-yl)pyrrolidine-1-carbonitrile]"
6,100 to 1000,"CCc1cccc(-c2ccc3nc([C@@H]4CCCN4C#N)oc3c2)c1 [Example 130, (S)-2-(6-(3-Ethylphenyl)benzo[d]oxazol-2-yl)pyrrolidine-1-carbonitrile]"
7,1000 to 10000,"Cn1ncc2cc(-c3ccc4oc([C@@H]5CCCN5C#N)nc4c3)ccc21 [Example 135, (S)-2-(5-(1-Methyl-1H-indazol-5-yl)-benzo[d]oxazol-2-yl)pyrrolidine-1-carbonitrile]"
8,100 to 1000,"N#CN1CCC[C@H]1c1nc2cc(-c3cccc([N+](=O)[O-])c3)ccc2o1 [Example 136, (S)-2-(5-(3-Nitrophenyl)benzo[d]oxazol-2-yl)pyrrolidine-1-carbonitrile]"
9,1000 to 10000,"Cc1ccc(S(=O)(=O)NCc2ccccc2)cc1-c1ccc2oc([C@@H]3CCCN3C#N)nc2c1 [Example 139, (S)-N-Benzyl-3-(2-(1-cyanopyrrolidin-2-yl)-benzo[d]oxazol-5-yl)-4-methyl-benzenesulfonamide]"
10,1000 to 10000,"N#CN1CCCC1c1nnc(-c2cccc(-c3ccccc3)c2)o1 (stereo not shown) [Example 140, 2-(5-([1,1′-Biphenyl]-3-yl)-1,3,4-oxadiazol-2-yl)pyrrolidine-1-carbonitrile]"
11,1000 to 10000,"N#CN1CCCC1c1noc(-c2cccc(-c3ccccc3)n2)n1 (stereo not shown) [Example 142, 2-(5-(6-Phenylpyridin-2-yl)-1,2,4-oxadiazol-3-yl)pyrrolidine-1-carbonitrile]"
12,100 to 1000,"COc1ccc(C#N)cc1-c1cccc(-c2nc(C3CCCN3C#N)no2)c1 (stereo not shown) [Example 146, 2-(5-(5′-Cyano-2′-methoxy-[1,1′-biphenyl]-3-yl)-1,2,4-oxadiazol-3-yl)pyrrolidine-1-carbonitrile]"
13,1000 to 10000,"Cc1noc(C)c1-c1cccc(-c2nc(C3CCCN3C#N)no2)c1 (stereo not shown) [Example 147, 2-(5-(3-(3,5-Dimethylisoxazol-4-yl)phenyl)-1,2,4-oxadiazol-3-yl)pyrrolidine-1-carbonitrile]"
14,1000 to 10000,"Cn1cc(-c2cccc(-c3nc(C4CCCN4C#N)no3)c2)cn1 (stereo not shown) [Example 148, 2-(5-(3-(1-Methyl-1H-pyrazol-4-yl)phenyl)-1,2,4-oxadiazol-3-yl)pyrrolidine-1-carbonitrile]"
15,1000 to 10000,"CN(C)S(=O)(=O)c1cccc(-c2cccc(-c3nc(C4CCCN4C#N)no3)c2)c1 (stereo not shown) [Example 150, 3′-(3-(1-Cyanopyrrolidin-2-yl)-1,2,4-oxadiazol-5-yl)-N,N-dimethyl-[1,1′-biphenyl]-3-sulfonamide]"
16,100 to 1000,Cn1ncc2cc(-c3cccc(-c4nc(C5CCCN5C#N)no4)c3)ccc21 (stereo not shown) [Example 151]
17,100 to 1000,"Cc1ccc(-c2cccc(-c3nc(C4CCCN4C#N)no3)c2)cn1 (stereo not shown) [Example 154, 2-(5-(3-(6-Methylpyridin-3-yl)phenyl)-1,2,4-oxadiazol-3-yl)pyrrolidine-1-carbonitrile]"
18,100 to 1000,"COC(=O)c1ccccc1-c1cccc(-c2nc(C3CCCN3C#N)no2)c1 (stereo not shown) [Example 156, Methyl 3′-(3-(1-cyanopyrrolidin-2-yl)-1,2,4-oxadiazol-5-yl)-[1,1′-biphenyl]-2-carboxylate]"
19,1000 to 10000,"COc1ccc(-c2cccc(-c3nc(C4CCCN4C#N)no3)c2)cn1 (stereo not shown) [Example 158, 2-(5-(3-(6-Methoxypyridin-3-yl)phenyl)-1,2,4-oxadiazol-3-yl)pyrrolidine-1-carbonitrile]"
20,100 to 1000,"N#CN1CCCC1c1noc(-c2cccc(-c3ccoc3)c2)n1 (stereo not shown) [Example 160, 2-(5-(3-(Furan-3-yl)phenyl)-1,2,4-oxadiazol-3-yl)pyrrolidine-1-carbonitrile]"
21,1000 to 10000,"Cc1cncc(-c2cccc(-c3nc(C4CCCN4C#N)no3)c2)c1 (stereo not shown) [Example 164, 2-(5-(3-(5-Methylpyridin-3-yl)phenyl)-1,2,4-oxadiazol-3-yl)pyrrolidine-1-carbonitrile]"
22,100 to 1000,"Cc1cccc2cc(-c3cccc(-c4nc(C5CCCN5C#N)no4)c3)[nH]c12 (stereo not shown) [Example 165, 2-(5-(3-(7-Methyl-1H-indo1-2-yl)phenyl)-1,2,4-oxadiazol-3-yl)pyrrolidine-1-carbonitrile]"
